Laboratory results reported in patent US5977150A, “Amino acid derivatives of diaryl 1,3,4-oxadiazolone” (Bristol-Myers Squibb Company, priority 1999, dated 1999).

How the values were obtained:
[1] = tested on: cortical infarct volume; assay: Focal stroke model: permanent MCA and CCA occlusion with temporary right CCA occlusion; type: in vivo; details: 10 μg/kg i.v. single bolus two hours after MCA occlusion; infarct measured 24 hours after MCAO; Wistar rat
Description: To determine the ability of the compounds of the present invention to reduce cell loss resulting from neuronal ischemia, a standard focal cerebral ischemia is induced by permanent occlusion of the left middle cerebral artery (MCA) and common carotid artery (CCA) with one hour occlusion of the right CCA in the Wistar rat. The surgeries are performed using the sub-temporal approach of A. Tamura, et al., J. Cereb. Blood Flow Metab., 1, pp. 53-60, (1981) and its modifications [K. Osborne, et al., J. Neurol Neurosurg. Psychiatry, 50, pp. 402-410 (1987) and S. Menzies, et al., Neurosurgery, 31, pp. 100-107, (1992).]
The compound of Example 1 was evaluated in the focal stroke model involving permanent occlusion of the left MCA (MCAO) and CCA (CCAO) and temporary occlusion of the right CCA in the Wistar rat. This procedure results in a reliably large neocortical infarct volume that is measured by means of vital dye exclusion in serial slices through the brain 24 hours after MCAO. In the present test, compounds were administered using an i.v. or i.p. route of administration two hours after occlusion.

[2] = tested on: cloned mammalian (mSlo or hSlo) BK; assay: Two-electrode voltage clamp of cloned BK-mediated outward current expressed in Xenopus oocytes; type: cell-based; details: 1 μM; at least 5 oocytes; IBTX 50 nM used to isolate BK current
Description: (§1) The ability of the compound of Example 1 to open BK channels and increase whole-cell outward (K^+) BK-mediated currents was assessed under voltage-clamp conditions by determining their ability to increase cloned mammalian (mSlo or hSlo) BK-mediated outward current heterologously expressed in Xenopus oocytes [Butler, A., et al., Science, 261, pp. 221-224 (1993); and Dworetzky, S. I., et al., Mol. Brain Res., 27, pp.189-193 (1994)]. The two BK constructs employed represent nearly structurally identical homologous proteins, and have proven to be pharmacologically identical in our tests. To isolate BK current from native (background, non-BK) current, the specific and potent BK channel-blocking toxin iberiotoxin (IBTX) [Galvez, A., et al., J. Biol. Chem, 265, pp. 11083-11090 (1990)] was employed at a supramaximal concentration (50 nM). The relative contribution of BK channels current to total outward current was determined by subtraction of the current remaining in the presence of IBTX (non-BK current) from the current profiles obtained in all other experimental conditions (control, drug, and wash). […]

[3] = tested on: non-BK native currents in the oocytes; assay: Effect on non-BK (IBTX-insensitive) native currents in Xenopus oocytes under voltage clamp; type: cell-based; details: at the tested concentration (1 μM)
Description: as §1

[4] = Rapid screen of prodrug hydrolysis and release of the drug in plasma; type: in vitro ADME; details: fresh rat plasma, 37° C., 10 μg/mL from a 1 mg/mL PEG-400 stock, analysis 5 minutes after incubation, HPLC
Description: A rapid screen to determine the ability of prodrugs to hydrolyze and release the drug (compound of Example 1) is conducted as follows. A 1 mg/mL stock solution of the prodrug is prepared in distilled water or acetonitrile or PEG-400. Plasma from freshly collected rat or human blood is used in this assay. To 1 mL of plasma at 37° C. was added 10 μL of stock solution of prodrug and mixed gently. Immediately after the mixing, 100 μL of plasma was removed and quenched with 300 μL of acetontrile (Zero time sample). Samples were also obtained at 30 minutes and quenched immediately. The quenched samples were centrifuged to obtain a clear supernatant for analysis. The stock solution, T=0 and T=30 samples were analyzed by a HPLC assay that separates the drug from the prodrug. Based on the relative peak areas of prodrug and drug in these samples, different prodrugs are characterized as fast, moderate and slow release agents. For example, in this model, the compound of Example 9 was dissolved in PEG-400 at a concentration of 1 mg/mL and incubated at 10 μg/mL in fresh rat plasma at 37° C.

Row | Compound | reduction of cortical infarct volume vs vehicle-treated (water) control [1] | BK current, % of control of IBTX-sensitive current [2] | effect on non-BK native currents in the oocytes [3] | conversion of prodrug to drug (compound of Example 1) in plasma [4]
1 | O=c1oc(-c2ccc(C(F)(F)F)cc2)nn1Cc1cc(Cl)ccc1O [Example 1, 3-[(5-Chloro-2-hydroxyphenyl)methyl]-5-[4-(trifluoromethyl)phenyl]-1,3,4-oxadiazol-2(3H)-one] | about 18% | 126 % of control | did not effect non-BK native currents | 
2 | CN[C@@H](CC(C)C)C(=O)Oc1ccc(Cl)cc1Cn1nc(-c2ccc(C(F)(F)F)cc2)oc1=O [Example 9, 3-[(5-Chloro-2-hydroxyphenyl)methyl]-5-[4-(trifluoromethyl)phenyl]-1,3,4-oxadiazol-2(3H)-one, N-Methyl (L)-Leucine ester] |  |  |  | conversion of the compound of Example 9 to the compound of Example 1
